From patent publication US9296720B2, “Carboxamide-substituted heteroaryl-pyrazoles and the use thereof” (AiCuris GmbH & Co. KG, priority 2011, dated 2016)

Columns and labels:
[1] = test system: HIV-1NL4-3 K103N-Y181C; assay: Luminescence reduction assay, MT4 cells infected with HIV-1NL4-3 luciferase reporter virus, RT mutant K103N-Y181C; assay type: cell-based; conditions: Human immunodeficiency virus 1, MT4, read-out: EC50 (μM) MT4 Cells HIV-1NL4-3 K103N-Y181C 2% FCS, MT4 cells, HIV-1NL4-3 K103N-Y181C, 2% FCS
Method in brief: (§1)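 MT4 cells pellet-infected 2 h at 37° C with HIV-1NL4-3 reporter virus (lu164 replacing nef; wild type or site-directed RT mutants), washed, then incubated with compound dilutions (1% DMSO, 2% or 10% FCS) for 5 days. Secreted luciferase read with coelenterazine buffer; EC50 = concentration halving RLU versus untreated infected cells.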

[2] = test system: HIV-1LAI Wild Type; assay: AlamarBlue viability assay, HIV-1LAI-infected MT4 cells; assay type: cell-based; conditions: Human immunodeficiency virus 1, MT4, MT4 cells, 10% FCS
Method in brief: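 MT4 cells infected with HIV-1LAI (MOI 0.01, supernatant infection) cultured 5 days at 37 °C with compounds in RPMI with 2% or 10% FCS, 1% DMSO final. AlamarBlue fluorescence after 3 h; EC50 as 50% protection relative to uninfected cells, CC50 from high-concentration cytotoxicity.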

[3] = target: T1, reverse transcriptase (Human immunodeficiency virus type 1 group M subtype B, UniProt P04585); assay: Biochemical reverse transcriptase assay (Reverse Transcriptase Assay, colorimetric, Roche); conditions: colorimetric RT assay, DMSO 1%
T1 construct: negative control (batch without reverse transcriptase); purchased Roche Diagnostics GmbH, Mannheim, Germany
Protocol: The “Reverse Transcriptase Assay, colorimetric” (Roche Diagnostics GmbH, Mannheim, Germany) is used according to manufacturers' instructions. The test substances are dissolved in DMSO and used in diluted form in the test in the five steps (DMSO final concentration: 1%). The resulting values of the photometric analysis (405/492 nm) are smaller than 0.1 in the negative control (batch without reverse transcriptase) and are in the range of 1.5 in the positive control (batch without test substance). The IC50 values of the test substances are determined as the concentration of the test substance dilution, in which the measured optical density is 50% of the positive control.

[4] = test system: HIV-1NL4-3 Wild Type; assay: Luminescence reduction assay, MT4 cells infected with HIV-1NL4-3 luciferase reporter virus, wild type; assay type: cell-based; conditions: Human immunodeficiency virus 1, MT4, MT4 cells, 2% FCS
Method in brief: as §1

`O=C1CN(C(=O)c2cc(-c3cc(Br)cc(OC(F)(F)F)c3)n(-c3cccnc3)n2)CN1` [Example 28, 1-({5-[3-Bromo-5-(trifluoromethoxy)phenyl]-1-(pyridin-3-yl)-1H-pyrazol-3-yl}carbonyl)imidazolidin-4-one] gave an EC50 [1] of 0.005 µM, an EC50 [2] of 0.044 µM and an IC50 [3] of 213 nM. For the same compound, the EC50 [4] was 0.005 µM.
Work on `O=C1CN(C(=O)c2cc(-c3cc(Br)cc(OC(F)(F)F)c3)n(-c3ccnc(Cl)c3)n2)CCN1` [Example 49, 4-({5-[3-Bromo-5-(trifluoromethoxy)phenyl]-1-(2-chloropyridin-4-yl)-1H-pyrazol-3-yl}carbonyl)piperazin-2-one] yielded an EC50 [1] of 0.038 µM, an EC50 [2] of 0.23 µM and an IC50 [3] of 758 nM. It also gave an EC50 [4] of 0.008 µM.
In the case of `O=C1CN(C(=O)c2cc(-c3cc(F)cc(Br)c3)n(-c3ccnc(Cl)c3)n2)CN1` [Example 92, 1-{[5-(3-Bromo-5-fluorophenyl)-1-(2-chloropyridin-4-yl)-1H-pyrazol-3-yl]carbonyl}imidazolidin-4-one], the EC50 [1] is reported as 0.033 µM, the EC50 [2] is reported as 0.026 µM and the EC50 [4] is reported as 0.005 µM.
`N#Cc1cc(OC(F)(F)F)cc(-c2cc(C(=O)N3CCNC(=O)C3)nn2-c2cccnc2)c1` [Example 89, 3-{3-[(3-Oxopiperazin-1-yl)carbonyl]-1-(pyridin-3-yl)-1H-pyrazol-5-yl}-5-(trifluoromethoxy)benzonitrile] was tested, and the EC50 [1] was 0.523 µM, the EC50 [2] was 0.129 µM and the EC50 [4] was 0.258 µM.
`O=C1CN(C(=O)c2cc(-c3cc(F)cc(OC(F)(F)F)c3)n(-c3cccnc3)n2)CCN1` [Example 58] showed an EC50 [1] of 1.09 µM, an EC50 [2] of 0.955 µM and an IC50 [3] of 56 nM. The EC50 [4] was 0.204 µM.
`O=C(c1cc(-c2cc(Cl)cc(OC(F)F)c2)n(-c2cccnc2)n1)N1CCS(=O)(=O)C1` [Example 83, {5-[3-Chloro-5-(difluoromethoxy)phenyl]-1-(pyridin-3-yl)-1H-pyrazol-3-yl}(1,1-dioxido-1,3-thiazolidin-3-yl)methanone] gave an EC50 [1] of 0.168 µM, an EC50 [2] of 0.089 µM and an IC50 [3] of 65 nM. For the same compound, the EC50 [4] was 0.008 µM.
`COc1cc(OC(F)(F)F)cc(-c2cc(C(=O)N3CCNC(=O)C3)nn2-c2ccnc(Cl)c2)c1` [Example 87, 4-({1-(2-Chloropyridin-4-yl)-5-[3-methoxy-5-(trifluoromethoxy)phenyl]-1H-pyrazol-3-yl}carbonyl)piperazin-2-one] showed an EC50 [1] of 0.068 µM, an EC50 [2] of 0.618 µM and an EC50 [4] of 0.11 µM.
For `O=C(c1cc(-c2cc(Br)cc(OC(F)(F)F)c2)n(-c2ccc(F)nc2)n1)N1CCSC1` [Example 41, {5-[3-Bromo-5-(trifluoromethoxy)phenyl]-1-(6-fluoropyridin-3-yl)-1H-pyrazol-3-yl}(1,3-thiazolidin-3-yl)methanone], the EC50 [1] was 0.087 µM, the EC50 [2] was 0.991 µM and the EC50 [4] was 0.042 µM.
In the case of `O=C1CN(C(=O)c2cc(-c3cc(F)cc(Cl)c3)n(-c3ccc(Cl)nc3)n2)CN1` [Example 7, 1-{[5-(3-Chloro-5-fluorophenyl)-1-(6-chloropyridin-3-yl)-1H-pyrazol-3-yl]carbonyl}imidazolidin-4-one], the EC50 [1] is reported as 0.018 µM, the EC50 [2] is reported as 0.064 µM and the EC50 [4] is reported as 0.01 µM.
`COc1cncc(-c2cc(C(=O)N3CNC(=O)C3)nn2-c2ccc(F)c(Cl)c2)c1` [Example 102, 1-{[1-(3-Chloro-4-fluorophenyl)-5-(5-methoxypyridin-3-yl)-1H-pyrazol-3-yl]carbonyl}imidazolidin-4-one] was tested, and the EC50 [1] was 0.022 µM, the EC50 [2] was 0.111 µM and the EC50 [4] was 0.026 µM.
For `O=C1CN(C(=O)c2cc(-c3cc(Br)cc(OC(F)(F)F)c3)n(-c3ccccn3)n2)CN1` [Example 26, 1-({5-[3-Bromo-5-(trifluoromethoxy)phenyl]-1-(pyridin-2-yl)-1H-pyrazol-3-yl}carbonyl)imidazolidin-4-one], the EC50 [1] was 0.071 µM, the EC50 [2] was over 3.3 µM and the EC50 [4] was 0.12 µM.
With `O=C1CN(C(=O)c2cc(-c3ccnc(Cl)c3)n(-c3ccc(F)c(Cl)c3)n2)CCN1` [Example 113, 4-{[1-(3-Chloro-4-fluorophenyl)-5-(2-chloropyridin-4-yl)-1H-pyrazol-3-yl]carbonyl}piperazin-2-one] the EC50 [1] was 0.298 µM, the EC50 [2] was 0.233 µM and the EC50 [4] was 0.025 µM.
With `O=C1CN(C(=O)c2cc(-c3cc(F)cc(Cl)c3)n(-c3ccncc3)n2)CN1` [Example 13, 1-{[5-(3-Chloro-5-fluorophenyl)-1-(pyridin-4-yl)-1H-pyrazol-3-yl]carbonyl}imidazolidin-4-one] the EC50 [1] was 0.88 µM, the EC50 [2] was 1.34 µM and the EC50 [4] was 0.323 µM.
